Data set [1] has as its system A2780 (cisplatin-sensitive ovarian cancer cells). The data set can be described thus: Antiproliferative activity (CellTiter-Glo cytotoxicity assay) on A2780. The class given is cell-based, human. As to conditions: 96 h of incubation, stock solutions in DMSO (cisplatin in H2O/NaCl). How it is done: (§1) With the aim of exploring the potential anticancer effects of platinum(0)-η^2-1,2-(E)ditosylethene complexes, we exposed a set of three distinct human tumor cell lines (ovarian cancer A2780 and its cisplatin-resistant clone A2780cis, and triple-negative breast cancer MDA-MB-231) to the synthesized compounds and cisplatin (positive control) for a duration of 96 h.
(§2) Two types of ovarian cancer cell lines (A2780 and A2780cis), one breast cancer cell line (MDA-MB-231) and a normal cell line (MRC-5) were cultured following the supplier’s guidelines (Sigma-Aldrich, St. Louis, MO, USA) and maintained at 37 °C in a humidified atmosphere containing 5% CO2. In 96-well plates, 1∙10^3 cancer cells and 8∙10^3 MRC-5 cells were seeded and treated after 24 h with six different concentrations of Pt(0) complexes (0.001, 0.01, 0.1, 1, 10, 100 µM). Stock solutions (10 mM) of all platinum complexes were prepared using DMSO as a solvent. After 96 h of treatment, cell viability was assessed using a CellTiter-Glo assay (Promega, Madison, WI, USA) with Tecan M1000 or SynergyH1 microplate readers (Mennedorf, Switzerland). IC50 values were determined from logistical dose–response curves using GraphPad Prism 8 software. Triplicate measurements were taken to calculate averages, and standard deviations were represented by error bars.
(In general: ATP-based viability assays read luminescence as a measure of living cells.)

Data set [2] deals with MRC-5 (normal lung fibroblasts). The data set can be described thus: Antiproliferative activity (CellTiter-Glo cytotoxicity assay) on MRC-5 normal cells. Conditions: 96 h of incubation, stock solutions in DMSO (cisplatin in H2O/NaCl). It counts as cell-based, human. How it is done:
as §1, §2

Data set [3] deals with A2780cis (cisplatin-resistant ovarian cancer cells). The data set is described as follows: Antiproliferative activity (CellTiter-Glo cytotoxicity assay) on A2780cis. As to conditions: 96 h of incubation, stock solutions in DMSO (cisplatin in H2O/NaCl). It counts as cell-based, human. The procedure: as §1, §2
Data set [4] has as its system MDA-MB-231 (triple-negative breast cancer cells). The data set is described as follows: Antiproliferative activity (CellTiter-Glo cytotoxicity assay) on MDA-MB-231. The class given is cell-based, human. As to conditions: 96 h of incubation; MDA-MB-231 cells; stock solutions in DMSO (cisplatin in H2O/NaCl). How it is done:
as §1, §2

Data set [5] can be described thus: Solubility in DMSO and DMSO/H2O solutions. It counts as physicochemical. The source says: Therefore, these three platinum derivatives were consequently excluded from biological analyses.

Broadly, the IC50 is the midpoint of a concentration-inhibition curve. “[(PPh3)(DIC)Pt(η^2-(E)-1,2-ditosylethene)] [Compound 4a]”: the IC50 is 35 ± 3 µM in data set [1], 59 ± 8 µM in data set [2], greater than 100 µM in data set [3] and 1.8 ± 0.6 µM in data set [4].

As for “[(PPh3)(CyIC)Pt(η^2-(E)-1,2-ditosylethene)] [Compound 4g]”, the Solubility entry in data set [5] is “low solubility”.

In the case of “[(P(p-F-Ph)3)(TIC)Pt(η^2-(E)-1,2-ditosylethene)] [Compound 4f]”, the half-maximal inhibitory concentration (IC50) is greater than 100 µM in data set [1], greater than 100 µM in data set [2], greater than 100 µM in data set [3] and 21 ± 2 µM in data set [4].

On to “[(P(p-F-Ph)3)(CyIC)Pt(η^2-(E)-1,2-ditosylethene)] [Compound 4h]”, for which the IC50 in data set [1] was 41 ± 10 µM; in data set [2] it was greater than 100 µM; in data set [3], greater than 100 µM; in data set [4], 37 ± 13 µM.

As to “[(TosMIC)2Pt(η^2-(E)-1,2-ditosylethene)] [Compound 3b]”, the IC50 in data set [1] amounted to 5.4 ± 0.7 µM; in data set [2] it was 22 ± 6 µM; in data set [3], 11 ± 6 µM; in data set [4] it was 5.52 ± 0.03 µM.

Take “[(PPh3)(TIC)Pt(η^2-(E)-1,2-ditosylethene)] [Compound 4e]”: in data set [5], the Solubility result is recorded as “low solubility”.

As for “[(CH3ImCH2Ph)2Pt(η^2-(E)-1,2-ditosylethene)] [Compound 6b]”, the 50% inhibitory concentration (IC50) in data set [1] worked out at 1.9 ± 0.3 µM; in data set [2], 61 ± 13 µM; in data set [3], 12.91 ± 0.06 µM; in data set [4] it was 5.4 ± 0.9 µM.

As for `N.N.[Cl][Pt][Cl]` [Cisplatin, reference compound], the concentration for half-maximal inhibition (IC50) in data set [1] was determined as 0.19 ± 0.08 µM; in data set [2], 2.9 ± 0.1 µM; in data set [3], 5.4 ± 0.1 µM; in data set [4], 6.4 ± 0.5 µM.

As to “[(P(p-F-Ph)3)(TosMIC)Pt(η^2-(E)-1,2-ditosylethene)] [Compound 4d]”, the IC50 in data set [1] is greater than 100 µM; in data set [2], 14 ± 1 µM; in data set [3], greater than 100 µM; in data set [4], 0.4 ± 0.1 µM.

Consider “[(TolCH2ImCH2Tol)2Pt(η^2-(E)-1,2-ditosylethene)] [Compound 6a]”, for which the half-inhibitory concentration (IC50) in data set [1] is 1.6 ± 0.1 µM; in data set [2] it was greater than 100 µM; in data set [3], 10 ± 3 µM; in data set [4], 36 ± 11 µM.

For “[(PPh3)2Pt(η^2-(E)-1,2-ditosylethene)] [Compound 2a]”, the IC50 in data set [1] was 5.5 ± 0.6 µM; in data set [2], greater than 100 µM; in data set [3] it was greater than 100 µM; in data set [4], 2.6 ± 0.4 µM.

On to “[(PPh3)(TosMIC)Pt(η^2-(E)-1,2-ditosylethene)] [Compound 4c]”, for which the IC50 is 55 ± 17 µM in data set [1], 15 ± 3 µM in data set [2], greater than 100 µM in data set [3] and 1 ± 0.8 µM in data set [4].

Take “[(P(p-F-Ph)3)(DIC)Pt(η^2-(E)-1,2-ditosylethene)] [Compound 4b]”: the IC50 was 85 ± 23 µM in data set [1], greater than 100 µM in data set [2], greater than 100 µM in data set [3] and 30 ± 13 µM in data set [4].

“[(DIC)2Pt(η^2-(E)-1,2-ditosylethene)] [Compound 3a]”: the Solubility entry in data set [5] was “low solubility”.

As to “[(P(p-F-Ph)3)2Pt(η^2-(E)-1,2-ditosylethene)] [Compound 2b]”, the IC50 in data set [1] is greater than 100 µM; in data set [2], greater than 100 µM; in data set [3], greater than 100 µM; in data set [4] it was 36 ± 6 µM.

Turning to “[(P(2-furyl)3)2Pt(η^2-(E)-1,2-ditosylethene)] [Compound 2c]”, the IC50 in data set [1] is 17.2 ± 0.8 µM; in data set [2] it was greater than 100 µM; in data set [3], greater than 100 µM; in data set [4], greater than 100 µM.

“[(TIC)2Pt(η^2-(E)-1,2-ditosylethene)] [Compound 3c]”: the IC50 in data set [1] turned out to be 2.6 ± 0.3 µM; in data set [2] it was 3.5 ± 0.1 µM; in data set [3], 3.1 ± 0.9 µM; in data set [4], 3.4 ± 0.4 µM.

With “[(CyIC)2Pt(η^2-(E)-1,2-ditosylethene)] [Compound 3d]”, the IC50 is 1.18 ± 0.09 µM in data set [1], 1.4 ± 0.2 µM in data set [3] and 1.2 ± 0.3 µM in data set [4].

These data come from article PMC10934098, “Platinum(0)-η^2-1,2-(E)ditosylethene Complexes Bearing Phosphine, Isocyanide and N-Heterocyclic Carbene Ligands: Synthesis and Cytotoxicity towards Ovarian and Breast Cancer Cells” (Molecules, 2024).
